Entries after “also recorded” stand apart in the source; their conditions may differ. Like-named read-outs stand apart in the source and are kept apart here.
What was measured:
[1] = molecular target: recombinant PI3 kinase γ (Homo sapiens (Human), UniProt P48736); test: Enzyme Inhibition Assay (HTRF PI3K enzyme assay, TR-FRET); type: biochemical
Procedure, shortened: (§1)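 TR-FRET readout after 15-18 hr at RT with biotinylated PIP3, GST-tagged GRP1 PH domain and europium/APC fluorophores; product PIP3 displaces the tracer and lowers the signal. Beforehand, compound and PIP2 were reacted for 2 hr at RT with human recombinant PI3Kα, δ or γ.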

[2] = tested on: LPS induced neutrophilia in mouse lung; test: LPS-Induced Neutrophilia in the Mouse; type: in vivo; conditions: for % Inhibition of neutrophils in BAL at the dose indicated (mg/mL) (0.05): 0.05 mg/mL intra-tracheal; for % Inhibition of neutrophils in BAL at the dose indicated (mg/mL) (0.05) / % Inhibition of neutrophils in BAL at the dose indicated (mg/mL) (0.2) / % Inhibition of neutrophils in BAL at the dose indicated (mg/mL) (1.0): 2 hr before LPS challenge; for % Reduction of inhibition at 8 hr compared with 2 hr: 0.2 mg/mL dose; for % Reduction of inhibition at 8 hr compared with 2 hr / % Inhibition at 0.2 mg/mL dose at time indicated (hr) (2) / % Inhibition at 0.2 mg/mL dose at time indicated (hr) (8): mouse lung; for % Inhibition of neutrophils in BAL at the dose indicated (mg/mL) (0.2): 0.2 mg/mL intra-tracheal; for % Inhibition at 0.2 mg/mL dose at time indicated (hr) (2): dosed 2 hr before LPS challenge; for % Inhibition at 0.2 mg/mL dose at time indicated (hr) (8): dosed 8 hr before LPS challenge; for % Inhibition of neutrophils in BAL at the dose indicated (mg/mL) (1.0): 1.0 mg/mL intra-tracheal; for inhibition of LPS-induced neutrophilia (neutrophil influx into the lung), in words: intra-tracheal dosing before LPS challenge
Description: Non-fasted mice were dosed by the intra-tracheal route with either vehicle, or the test substance at the time points (“pre-dose”) indicated with respect to the start of LPS treatment. At T=0, mice were placed into an exposure chamber and exposed to LPS. Eight hr after LPS challenge, animals were anesthetized, the trachea cannulated and BALF extracted by infusing and withdrawing 1 mL of PBS into the lungs via a tracheal catheter. Total and differential white cell counts in the BALF samples were measured using a Neubaur haemocytometer. Cytospin smears of the BALF samples were prepared by centrifugation at 200 rpm for 5 min at RT and stained using a DiffQuik stain system (Dade Behring). Cells were counted using oil immersion microscopy.

[3] = tested on: PMA-differentiated U937 cells; test: MTT Assay (cell viability); type: cell-based, Human; conditions: percentage loss of cell viability; for Cell Viability MTT Assay in D-U937 cells at 4 hr: 4 hr in 5% FCS; for Cell Viability MTT Assay in D-U937 cells at 24 hr: 24 hr in 10% FCS
Procedure, shortened: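 Differentiated U937 cells treated with compound for 4 hr (5% FCS) or 24 hr (10% FCS), then given MTT for 1 hr; formazan dissolved in DMSO and absorbance read at 550 nm. Viability loss expressed as % versus 0.5% DMSO vehicle.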

[4] = tested on: cigarette smoke-induced pulmonary macrophage and neutrophil influx; test: Cigarette Smoke Model; type: in vivo, mouse; conditions: A/J mice; for anti-inflammatory activity (BALF neutrophils and alveolar macrophages), monotherapy: twice daily for 3 days after final smoke exposure
Description: A/J mice (males, 5 weeks old) were exposed to cigarette smoke (4% cigarette smoke, diluted with compressed air) for 30 min/day for 11 days using a Tobacco Smoke Inhalation Experiment System for small animals (Model SIS-CS; Sibata Scientific Technology, Tokyo, Japan). Test substances were given intra-nasally (35 μL of solution in 50% DMSO/PBS) and therapeutically twice daily for 3 days after the final cigarette smoke exposure. Twelve hr after the last dosing, animals were anesthetized, the trachea cannulated and bronchoalveolar lavage fluid (BALF) was collected. The numbers of alveolar macrophages and neutrophils were determined by FACS analysis (EPICS® ALTRA II, Beckman Coulter, Inc., Fullerton, Calif., USA) using anti-mouse MOMA2 antibody (macrophage) or anti-mouse 7/4 antibody (neutrophil).

[5] = molecular target: recombinant PI3 kinase δ (Homo sapiens (Human), UniProt O00329); test: Enzyme Inhibition Assay (HTRF PI3K enzyme assay, TR-FRET); type: biochemical
Procedure, shortened: as §1

[6] = molecular target: recombinant PI3 kinase α (Homo sapiens (Human), UniProt P42336); test: as above; type: biochemical
Procedure, shortened: as §1

[7] = tested on: H2O2 induced pAkt in D-U937 cells; test: PI3Kδ Cell Based Assay (H2O2 induced pAkt); conditions: Homo sapiens
Procedure, shortened: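 Read-out is the pAkt/total Akt signal ratio, measured with anti-pAkt and anti-pan-Akt antibodies after H2O2 stimulation. Cells were U937 monocytes given PMA (100 ng/mL) for 48 to 72 hr. IC50 values fitted from compound serial dilutions.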

[8] = Stereochemical analysis by chiral stationary phase HPLC (atropisomerism); type: physicochemical; conditions: chiral stationary phase HPLC (16 different conditions for the examples)
Description: Each of these mobile phase are compatible with the column packings referred to above, providing sixteen different solvent and stationary phase permutations. Modifiers such as triethylamine (0.1%), formic acid (0.1%) may be added to improve the resolution
Semi-preparative Chiral Stationary Phase LC-UV was performed on a Gilson preparative modular system using a Daicel Chiralpak AD semi-prep column ([…], 20×250 mm) and a flow rate of 18 mL/min eluting with an isocratic method over 20 min using […] heptane:IPA and 0.1% triethylamine employing an injection volume of 1.0 mL.

[9] = activity range, read-out: PI3 Kinase Inhibition IC50 values at stated Isozyme γ
[10] = read-out: PI3 Kinase Inhibition IC50 values at stated Isozyme (nM) γ
[11] = activity range, read-out: PI3 Kinase Inhibition IC50 values at stated Isozyme δ
[12] = read-out: PI3 Kinase Inhibition IC50 values at stated Isozyme (nM) δ
[13] = activity range, read-out: PI3 Kinase Inhibition IC50 values at stated Isozyme α
[14] = read-out: PI3 Kinase Inhibition IC50 values at stated Isozyme (nM) α
[15] = dU937, activity range, D-U937 cells, read-out: Cellular Activity IC50 values (H2O2 induced pAkt D-U937 Cells)
[16] = dU937, read-out: Cellular Activity IC50 values (H2O2 induced pAkt (nM) D-U937 Cells)
[17] = dU937, read-out: Cellular Activity IC50 values (H2O2 induced pAkt D-U937 Cells)

Sequence of recombinant PI3 kinase α (P42336 whole entry): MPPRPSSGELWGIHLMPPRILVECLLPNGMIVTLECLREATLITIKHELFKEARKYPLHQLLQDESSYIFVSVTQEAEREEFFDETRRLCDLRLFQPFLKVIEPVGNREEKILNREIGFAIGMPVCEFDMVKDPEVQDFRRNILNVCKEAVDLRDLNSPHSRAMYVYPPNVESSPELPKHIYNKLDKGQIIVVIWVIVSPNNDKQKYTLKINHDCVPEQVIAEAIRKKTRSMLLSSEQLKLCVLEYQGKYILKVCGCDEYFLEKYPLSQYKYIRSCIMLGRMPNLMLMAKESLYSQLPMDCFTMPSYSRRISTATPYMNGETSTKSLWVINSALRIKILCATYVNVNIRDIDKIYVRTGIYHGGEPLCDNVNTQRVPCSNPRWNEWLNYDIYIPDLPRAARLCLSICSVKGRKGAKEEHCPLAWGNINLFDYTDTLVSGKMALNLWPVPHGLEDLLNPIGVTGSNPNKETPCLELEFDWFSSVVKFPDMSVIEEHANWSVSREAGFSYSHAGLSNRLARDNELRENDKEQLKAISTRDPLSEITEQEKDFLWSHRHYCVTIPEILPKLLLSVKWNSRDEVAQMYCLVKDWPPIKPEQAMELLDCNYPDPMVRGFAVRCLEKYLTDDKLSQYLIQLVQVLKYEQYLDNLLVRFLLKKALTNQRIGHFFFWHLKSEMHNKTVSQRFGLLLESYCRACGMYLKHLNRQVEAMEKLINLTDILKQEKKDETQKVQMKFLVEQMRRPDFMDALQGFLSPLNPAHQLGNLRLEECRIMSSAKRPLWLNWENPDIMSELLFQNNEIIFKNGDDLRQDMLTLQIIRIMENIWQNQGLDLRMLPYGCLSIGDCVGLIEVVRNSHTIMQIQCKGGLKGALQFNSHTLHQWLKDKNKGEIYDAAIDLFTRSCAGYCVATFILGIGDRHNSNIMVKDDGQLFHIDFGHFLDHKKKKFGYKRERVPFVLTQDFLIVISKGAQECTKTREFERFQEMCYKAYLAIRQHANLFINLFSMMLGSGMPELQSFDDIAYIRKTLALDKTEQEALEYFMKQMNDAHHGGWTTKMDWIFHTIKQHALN
Sequence of recombinant PI3 kinase α (P27986 whole entry partner): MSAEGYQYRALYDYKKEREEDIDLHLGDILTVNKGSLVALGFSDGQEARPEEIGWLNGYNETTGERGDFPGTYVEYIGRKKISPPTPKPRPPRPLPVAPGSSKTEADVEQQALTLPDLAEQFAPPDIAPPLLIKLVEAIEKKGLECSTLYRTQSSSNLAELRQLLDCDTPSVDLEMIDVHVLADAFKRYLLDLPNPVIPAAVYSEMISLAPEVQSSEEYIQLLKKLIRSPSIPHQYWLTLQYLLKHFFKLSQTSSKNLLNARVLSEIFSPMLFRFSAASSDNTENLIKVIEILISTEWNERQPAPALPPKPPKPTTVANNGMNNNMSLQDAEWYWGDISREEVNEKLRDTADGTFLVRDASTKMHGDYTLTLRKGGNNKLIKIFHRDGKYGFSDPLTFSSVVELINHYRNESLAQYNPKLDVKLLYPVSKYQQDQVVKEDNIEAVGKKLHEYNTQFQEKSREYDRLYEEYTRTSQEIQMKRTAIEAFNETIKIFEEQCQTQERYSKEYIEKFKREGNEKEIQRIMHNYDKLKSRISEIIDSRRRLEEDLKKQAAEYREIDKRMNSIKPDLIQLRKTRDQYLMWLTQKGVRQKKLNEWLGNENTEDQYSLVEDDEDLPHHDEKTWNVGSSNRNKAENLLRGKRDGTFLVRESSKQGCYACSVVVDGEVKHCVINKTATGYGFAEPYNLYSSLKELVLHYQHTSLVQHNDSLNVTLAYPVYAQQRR
Sequence of recombinant PI3 kinase δ (O00329 whole entry): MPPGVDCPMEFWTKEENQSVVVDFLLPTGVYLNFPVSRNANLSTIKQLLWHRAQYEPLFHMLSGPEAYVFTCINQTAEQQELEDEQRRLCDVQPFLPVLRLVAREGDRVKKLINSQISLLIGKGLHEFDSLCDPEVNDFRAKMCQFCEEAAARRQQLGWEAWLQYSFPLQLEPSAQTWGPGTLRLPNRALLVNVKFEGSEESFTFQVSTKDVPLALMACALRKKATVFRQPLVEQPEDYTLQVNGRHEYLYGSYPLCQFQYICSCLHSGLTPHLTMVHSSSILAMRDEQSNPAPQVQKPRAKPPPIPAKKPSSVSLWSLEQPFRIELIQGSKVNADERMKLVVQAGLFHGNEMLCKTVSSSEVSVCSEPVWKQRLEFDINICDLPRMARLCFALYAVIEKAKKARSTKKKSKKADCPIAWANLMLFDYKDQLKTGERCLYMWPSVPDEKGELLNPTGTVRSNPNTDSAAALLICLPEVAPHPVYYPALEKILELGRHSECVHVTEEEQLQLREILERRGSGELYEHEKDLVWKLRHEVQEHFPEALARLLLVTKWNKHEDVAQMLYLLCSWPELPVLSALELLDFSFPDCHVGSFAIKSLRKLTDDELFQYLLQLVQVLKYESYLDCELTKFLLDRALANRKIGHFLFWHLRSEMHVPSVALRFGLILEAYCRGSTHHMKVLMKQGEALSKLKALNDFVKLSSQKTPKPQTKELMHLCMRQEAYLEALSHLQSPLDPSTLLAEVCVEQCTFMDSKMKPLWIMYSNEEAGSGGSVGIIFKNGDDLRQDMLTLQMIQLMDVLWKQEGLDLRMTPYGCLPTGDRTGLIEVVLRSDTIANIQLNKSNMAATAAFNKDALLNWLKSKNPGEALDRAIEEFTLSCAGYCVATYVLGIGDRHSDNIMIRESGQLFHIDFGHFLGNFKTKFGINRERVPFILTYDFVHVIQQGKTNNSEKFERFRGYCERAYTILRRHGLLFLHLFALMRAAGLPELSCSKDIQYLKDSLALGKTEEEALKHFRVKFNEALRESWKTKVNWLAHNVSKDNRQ
Sequence of recombinant PI3 kinase δ (P27986 whole entry partner): as the sequence (P27986 whole entry partner) above
Sequence of recombinant PI3 kinase γ (P48736 whole entry, the tested form may be a part): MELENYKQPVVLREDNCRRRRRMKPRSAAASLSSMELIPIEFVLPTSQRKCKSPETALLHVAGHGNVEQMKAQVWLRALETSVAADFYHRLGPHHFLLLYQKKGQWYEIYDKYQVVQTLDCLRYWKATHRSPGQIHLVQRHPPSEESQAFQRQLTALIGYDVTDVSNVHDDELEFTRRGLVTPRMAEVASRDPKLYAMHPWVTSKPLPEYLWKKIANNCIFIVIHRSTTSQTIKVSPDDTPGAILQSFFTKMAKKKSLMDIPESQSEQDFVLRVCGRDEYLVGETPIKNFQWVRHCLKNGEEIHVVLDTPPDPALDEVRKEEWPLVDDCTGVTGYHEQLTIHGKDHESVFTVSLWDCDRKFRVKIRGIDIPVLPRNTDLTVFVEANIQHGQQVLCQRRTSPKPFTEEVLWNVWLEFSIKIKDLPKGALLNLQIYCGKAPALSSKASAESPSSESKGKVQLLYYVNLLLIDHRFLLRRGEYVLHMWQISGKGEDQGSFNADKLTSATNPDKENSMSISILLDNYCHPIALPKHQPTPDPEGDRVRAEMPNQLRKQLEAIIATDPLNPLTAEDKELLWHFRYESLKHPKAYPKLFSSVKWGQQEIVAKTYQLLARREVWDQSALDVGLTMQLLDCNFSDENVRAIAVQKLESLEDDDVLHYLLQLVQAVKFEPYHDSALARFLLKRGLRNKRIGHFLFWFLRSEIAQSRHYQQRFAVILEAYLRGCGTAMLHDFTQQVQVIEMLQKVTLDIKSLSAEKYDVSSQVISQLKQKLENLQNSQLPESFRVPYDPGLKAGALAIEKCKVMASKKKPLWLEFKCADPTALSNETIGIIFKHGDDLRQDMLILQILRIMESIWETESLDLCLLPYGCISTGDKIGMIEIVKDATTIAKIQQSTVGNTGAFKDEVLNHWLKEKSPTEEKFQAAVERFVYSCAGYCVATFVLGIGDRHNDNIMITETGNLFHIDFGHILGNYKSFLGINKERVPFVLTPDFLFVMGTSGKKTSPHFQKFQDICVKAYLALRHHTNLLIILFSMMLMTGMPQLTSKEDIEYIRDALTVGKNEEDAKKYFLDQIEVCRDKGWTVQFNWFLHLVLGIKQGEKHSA

Row | IC50 [1, 10] | IC50 [5, 11] | IC50 [6, 13] | IC50 [7, 15] | Structure (SMILES) | IC50 [1, 9] | inhibition of LPS-induced neutrophilia (neutrophil influx into the lung), in words ([2]; mouse) | Cell Viability MTT Assay in D-U937 cells at 4 hr [3] | Cell Viability MTT Assay in D-U937 cells at 24 hr [3] | atropisomerism by chiral stationary phase HPLC [8] | other results
1 | 234 nM | < 50 nM | 50 to 1000 nM | < 10 nM | C#Cc1cccc2nc(Cn3nc(-c4cccc(O)c4)c4c(N)ncnc43)n(Cc3ccccc3Cl)c(=O)c12 [Example 1, 2-((4-Amino-3-(3-hydroxyphenyl)-1H-pyrazolo[3,4-d]pyrimidin-1-yl)methyl)-3-(2-chlorobenzyl)-5-ethynylquinazolin-4(3H)-one] | 50 to 1000 nM | Inhibition of LPS-induced neutrophilia | − (− <30%) | − (− <30%) | no evidence for atropisomerism was observed | anti-inflammatory activity when co-administered with fluticasone propionate ([4]; co-administered with fluticasone propionate at a dose which lacks effect as monotherapy): marked enhancement of anti-inflammatory activity; anti-inflammatory activity (BALF neutrophils and alveolar macrophages), monotherapy [4]: inhibition; also recorded: possesses anti-inflammatory activity; IC50 [5, 12]: 7 nM; IC50 [6, 14]: 199 nM; IC50 [7, 16]: 1.1 nM
2 | 16 nM | < 50 nM | < 50 nM | < 10 nM | Nc1ncnc2c1c(-c1ccc(O)cc1)nn2Cc1nc2cccc(C#CCCCC(=O)N3CCOCC3)c2c(=O)n1Cc1ccccc1Cl [Example 5, 2-((4-Amino-3-(4-hydroxyphenyl)-1H-pyrazolo[3,4-d]pyrimidin-1-yl)methyl)-3-(2-chlorobenzyl)-5-(6-morpholino-6-oxohex-1-yn-1-yl)quinazolin-4(3H)-one] | < 50 nM | dose dependent inhibition | − (− <30%) | − (− <30%) |  | IC50 [5, 12]: 20 nM; IC50 [6, 14]: 20 nM; % Inhibition of neutrophils in BAL at the dose indicated (mg/mL) (0.05) ([2]; mouse): 4.8%; % Reduction of inhibition at 8 hr compared with 2 hr [2]: 44%; % Inhibition of neutrophils in BAL at the dose indicated (mg/mL) (0.2) ([2]; mouse): 37.7%; % Inhibition at 0.2 mg/mL dose at time indicated (hr) (2) [2]: 37.7%; % Inhibition at 0.2 mg/mL dose at time indicated (hr) (8) [2]: 21.2%; % Inhibition of neutrophils in BAL at the dose indicated (mg/mL) (1.0) ([2]; mouse): 58.5%; level of anti-inflammatory activity at the 8 hr time point relative to value 2 hr after drug treatment ([2]; same dose, LPS challenge, mouse): over half of its original value; IC50 [7, 16]: 0.58 nM
3 |  | < 50 nM | 50 to 1000 nM | < 10 nM | C#Cc1cccc2nc(Cn3nc(-c4ccc(O)cc4)c4c(N)ncnc43)n(Cc3ccc(F)cc3)c(=O)c12 [Example 38, 2-((4-Amino-3-(4-hydroxyphenyl)-1H-pyrazolo[3,4-d]pyrimidin-1-yl)methyl)-5-ethynyl-3-(4-fluorobenzyl) quinazolin-4(3H)-one] | 50 to 1000 nM |  | − (− <30%) | − (− <30%) | no evidence for atropisomerism was observed | 
4 |  |  |  |  | CCC(=O)O[C@]1(C(=O)SCF)[C@H](C)C[C@H]2[C@@H]3C[C@H](F)C4=CC(=O)C=C[C@]4(C)[C@@]3(F)[C@@H](O)C[C@@]21C [fluticasone propionate, reference compound] |  |  |  |  |  | anti-inflammatory activity (BALF neutrophils and alveolar macrophages), monotherapy [4]: lacks effect as monotherapy
5 |  |  |  |  | C[C@@H]1C[C@H]2[C@@H]3CCC4=CC(=O)C=C[C@]4(C)[C@@]3(F)[C@@H](O)C[C@]2(C)[C@@]1(O)C(=O)CO [dexamethasone, reference compound] |  |  |  |  |  | anti-inflammatory activity (BALF neutrophils and alveolar macrophages) ([4]; 0.3-10 mg/kg, p.o.): inactive

Row | Structure (SMILES) | IC50 [1, 10] | IC50 [5, 11] | IC50 [6, 13] | IC50 [7, 15] | IC50 [1, 9] | inhibition of LPS-induced neutrophilia (neutrophil influx into the lung), in words ([2]; mouse) | Cell Viability MTT Assay in D-U937 cells at 4 hr [3] | Cell Viability MTT Assay in D-U937 cells at 24 hr [3] | atropisomerism by chiral stationary phase HPLC [8] | other results
6 | Nc1ncnc2c1c(-c1ccc(O)cc1)nn2Cc1nc2cccc(C#CCCCC(=O)O)c2c(=O)n1Cc1ccccc1Cl [Example 4, 6-(2-((4-Amino-3-(4-hydroxyphenyl)-1H-pyrazolo[3,4-d]pyrimidin-1-yl)methyl)-3-(2-chlorobenzyl)-4-oxo-3,4-dihydroquinazolin-5-yl)hex-5-ynoic acid] | 20 nM |  |  |  | < 50 nM | dose dependent inhibition | − (− <30%) | − (− <30%) |  | % Inhibition of neutrophils in BAL at the dose indicated (mg/mL) (0.05) ([2]; mouse): 3.2%; % Reduction of inhibition at 8 hr compared with 2 hr [2]: 73%; % Inhibition of neutrophils in BAL at the dose indicated (mg/mL) (0.2) ([2]; mouse): 47.2%; % Inhibition at 0.2 mg/mL dose at time indicated (hr) (2) [2]: 47.2%; % Inhibition at 0.2 mg/mL dose at time indicated (hr) (8) [2]: 12.9%; % Inhibition of neutrophils in BAL at the dose indicated (mg/mL) (1.0) ([2]; mouse): 64.6%
7 | C#Cc1cccc2nc(Cn3nc(-c4ccc(O)cc4)c4c(N)ncnc43)n(Cc3cccc(Cl)c3)c(=O)c12 [Example 11, 2-((4-Amino-3-(4-hydroxyphenyl)-1H-pyrazolo[3,4-d]pyrimidin-1-yl)methyl)-3-(3-chlorobenzyl)-5-ethynyl quinazolin-4(3H)-one] |  | < 50 nM | 50 to 1000 nM |  | 50 to 1000 nM |  | − (− <30%) | − (− <30%) | no evidence for atropisomerism was observed | IC50 [7, 17]: < 10 nM
8 | C#Cc1cccc2nc(Cn3nc(-c4cccc(O)c4)c4c(N)ncnc43)n(Cc3ccccc3F)c(=O)c12 [Example 12, 2-((4-Amino-3-(3-hydroxyphenyl)-1H-pyrazolo[3,4-d]pyrimidin-1-yl)methyl)-5-ethynyl-3-(2-fluorobenzyl) quinazolin-4(3H)-one] |  | < 50 nM | 50 to 1000 nM |  | 50 to 1000 nM |  | + (+ >30%) | − (− <30%) | no evidence for atropisomerism was observed | IC50 [7, 17]: < 10 nM
